These results are taken from article PMC7321178 (Molecules, 2020).

The target of experiment [1] is T1, AChE from Electrophorus electricus (eeAChE) (Electrophorus electricus, UniProt O42275).
T1 construct: purchased Sigma–Aldrich (Steinheim, Germany)
Kind of experiment: biochemical. The note with it: for inhibition at 10 µM: read-out: % Inhibition +/- SD (eeAChE). The protocol:
(§1) Compounds selected through virtual screening were tested for their ability to inhibit the activity of selected biological targets. The cholinesterase-inhibitory potency of the compounds was evaluated according to Ellman’s method using AChE obtained from E. electricus (eeAChE) and BuChE obtained from equine serum (eqBuChE).
(§2) The following reagents were purchased from Sigma–Aldrich (Steinheim, Germany): 5,5′-dithiobis-(2-nitrobenzoic acid) (DNTB), acetylthiocholine iodide (ATC), butyrylthiocholine iodide (BTC), AChE from Electrophorus electricus, and BuChE from horse serum. […] The biological assay was performed using Ellman’s method which was modified for 24-well plates. For this assay, 25 µL of the tested compounds or water (in the blank samples) and 20 µL of the enzyme in 765 µL of the buffer were incubated for 5 min at 25 °C before starting the reaction. Then, 20 µL of DTNB and 20 µL of the ATC/BTC solutions were added. […] To determine the IC50 value, the absorbance measured at six different concentrations of the inhibitor was converted to % inhibition of the enzyme and plotted against the applied concentration of the inhibitor, using nonlinear regression (GraphPad Prism 5; GraphPad Software, San Diego, CA, USA). […] All the reactions were performed in triplicate. Data are expressed as the mean ± SEM.

Experiment [2] addresses T2, BuChE from equine serum (eqBuChE) (Equus caballus, UniProt P81908).
T2 construct: BuChE obtained from equine serum (eqBuChE); purchased Sigma–Aldrich (Steinheim, Germany); host or cells: horse serum
The experiment in a line: biochemical. Conditions: for inhibition at 10 µM: 10 µM compound concentration, mean ± standard deviation, read-out: % Inhibition +/- SD (eqBuChE). The method, then:
as §1, §2

For experiment [3], the target named is T3, eeAChE (Electrophorus electricus, UniProt O42275).
T3 construct: purchased Sigma–Aldrich (Steinheim, Germany)
Kind of experiment: Kinetic studies of eeAChE inhibition (Lineweaver-Burk, Cornish-Bowden plots). Conditions: substrate acetylthiocholine. It is filed as biochemical. The protocol:
This was carried out by making use of the calculated values of Vmax and Km of the Michaelis–Menten kinetics and further through analyzing the Lineweaver–Burk and Cornish-Bowden reciprocal plots.
Kinetic studies were carried out by following Ellman’s method modified for 96-well plates, using different concentrations of the substrate. The stock solutions of ATC and BTC (0.02125 M) were prepared in water and diluted before use. The aqueous stock solutions of enzymes (5 U/mL) were diluted to a final concentration of 0.384 U/mL. For each concentration of the test compounds, ATC or BTC was used at a concentration of 0.3, 0.24, 0.18, 0.12, 0.06, and 0.04 mM in the wells. Lineweaver–Burk and Cornish-Bowden plots were generated using linear regression in GraphPad Prism 5 (GraphPad Software, San Diego, CA, USA). Each experiment was performed in triplicate.

The target in experiment [4] is T4, eqBuChE (Equus caballus, UniProt P81908).
T4 construct: BuChE obtained from equine serum (eqBuChE); purchased Sigma–Aldrich (Steinheim, Germany); host or cells: horse serum
Kind of experiment: Kinetic studies of eqBuChE inhibition (Lineweaver-Burk, Cornish-Bowden plots). The format is biochemical. Conditions: substrate butyrylthiocholine. The method, then:
[…]. This was carried out by making use of the calculated values of Vmax and Km of the Michaelis–Menten kinetics and further through analyzing the Lineweaver–Burk and Cornish-Bowden reciprocal plots. […] […].
Kinetic studies were carried out by following Ellman’s method modified for 96-well plates, using different concentrations of the substrate. The stock solutions of ATC and BTC (0.02125 M) were prepared in water and diluted before use. […]. Lineweaver–Burk and Cornish-Bowden plots were generated using linear regression in GraphPad Prism 5 (GraphPad Software, San Diego, CA, USA). Each experiment was performed in triplicate.

Setting [5] is: mean ± SEM of at least three experiments.
Where [6] appears, read: read-out: IC50 eqBuChE [µM] +/- SEM.
Where [7] appears, read: read-out: IC50 eeAChE [µM] +/- SEM.

Structures are written as SMILES. Values joined by “and” are separate entries in the source; they are usually repeats but may differ in a detail not shown here. Equal entries are not always repeated. Where two headings read alike, the source gives them in different places.

T1 sequence (O42275 24-633): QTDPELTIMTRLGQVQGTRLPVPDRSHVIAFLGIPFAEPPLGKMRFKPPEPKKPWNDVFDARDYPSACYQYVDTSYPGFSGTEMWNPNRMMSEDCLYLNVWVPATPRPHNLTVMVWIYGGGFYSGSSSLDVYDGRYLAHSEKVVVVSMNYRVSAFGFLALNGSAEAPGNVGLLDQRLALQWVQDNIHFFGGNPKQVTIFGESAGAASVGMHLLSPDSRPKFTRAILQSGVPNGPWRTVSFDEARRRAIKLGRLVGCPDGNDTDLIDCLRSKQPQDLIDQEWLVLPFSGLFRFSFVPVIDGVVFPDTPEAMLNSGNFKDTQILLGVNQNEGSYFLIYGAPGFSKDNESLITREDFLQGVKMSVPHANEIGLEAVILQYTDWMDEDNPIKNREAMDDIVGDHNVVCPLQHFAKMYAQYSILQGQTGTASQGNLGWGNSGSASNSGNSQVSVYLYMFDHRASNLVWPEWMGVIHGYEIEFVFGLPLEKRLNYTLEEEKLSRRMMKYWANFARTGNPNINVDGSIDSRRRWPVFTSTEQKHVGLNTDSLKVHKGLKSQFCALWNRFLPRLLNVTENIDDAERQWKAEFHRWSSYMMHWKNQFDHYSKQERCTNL
T2 sequence (P81908 whole entry): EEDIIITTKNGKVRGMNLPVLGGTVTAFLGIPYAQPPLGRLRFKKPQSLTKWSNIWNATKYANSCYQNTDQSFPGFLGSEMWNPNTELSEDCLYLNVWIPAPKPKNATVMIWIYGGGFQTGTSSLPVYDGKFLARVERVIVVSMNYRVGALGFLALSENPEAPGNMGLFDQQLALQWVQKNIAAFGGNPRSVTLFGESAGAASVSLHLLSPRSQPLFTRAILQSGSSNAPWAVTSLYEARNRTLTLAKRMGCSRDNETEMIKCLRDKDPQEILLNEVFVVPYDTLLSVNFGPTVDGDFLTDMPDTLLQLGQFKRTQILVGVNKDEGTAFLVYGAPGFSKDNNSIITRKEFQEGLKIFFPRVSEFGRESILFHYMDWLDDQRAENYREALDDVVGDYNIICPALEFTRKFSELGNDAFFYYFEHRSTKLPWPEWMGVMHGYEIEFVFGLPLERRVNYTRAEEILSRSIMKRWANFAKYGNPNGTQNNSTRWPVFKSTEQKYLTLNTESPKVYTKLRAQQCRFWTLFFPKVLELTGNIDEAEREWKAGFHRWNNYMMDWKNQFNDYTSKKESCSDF
T3 sequence (O42275 24-633): as the sequence (O42275 24-633) above
T4 sequence (P81908 whole entry): as the sequence (P81908 whole entry) above

Take `C(#CCN1c2cccnc2Sc2cccnc21)CN1CCCC1` [Compound 1, 10-(4-Pyrrolidin-1-yl-but-2-ynyl)-1,6-diazaphenothiazine]: the values for the inhibition at 10 µM in experiment [1] and in experiment [2] were 45.4 ± 9.8% and 65.4 ± 3%, respectively. Besides, the IC50 in experiment [2] (setting [5]) came to 5.75 ± 0.164 µM.

Regarding `C(#CCN1c2cccnc2Sc2cccnc21)CN1CCCCC1` [Compound 2, 10-(4-Piperidin-1-yl-but-2-ynyl)-1,6-diazaphenothiazine], the IC50 in experiment [1] (setting [5]) worked out at 8.31 ± 0.315 µM; in experiment [2] (setting [5]), 8.94 ± 0.239 µM. Moreover, the inhibition at 10 µM in experiment [1] was 60.3 ± 8.8%; in experiment [2], 56.6 ± 2.4%.

On to `C(#CCN1c2cccnc2Sc2cccnc21)CN1CCOCC1` [Compound 3, 10-(4-Morpholin-4-yl-but-2-ynyl)-1,6-diazaphenothiazine], for which the inhibition at 10 µM worked out at 13.7 ± 1.5% in experiment [1] and 63.6 ± 2.4% in experiment [2]. This compound yielded an IC50 in experiment [2] (setting [5]) of 9.25 ± 0.275 µM.

Consider `CN1CCCCC1CCN1c2cccnc2Sc2cccnc21` (stereo not shown) [Compound 4], for which the inhibition at 10 µM in experiment [1] came to 22.4 ± 1.1%; in experiment [2] it was 57 ± 7.4%. The compound also came in with an IC50 in experiment [2] (setting [5]) of 9.49 ± 0.33 µM.

Turning to `O=C1c2ccccc2C(=O)N1CCCN1c2cccnc2Sc2cccnc21` [Compound 5], the inhibition at 10 µM in experiment [1] was found to be 7.3 ± 0.9%; in experiment [2], 52.5 ± 5.9%. Further, in experiment [2] (setting [5]), the IC50 was determined as 10.1 ± 0.441 µM.

`CN(C)CCCN1c2cnccc2Sc2cccnc21` [Compound 6]: the inhibition at 10 µM was determined as 20.4 ± 3.6% in experiment [1] and 85.8 ± 0.5% in experiment [2]. Besides, in experiment [2] (setting [6]), the IC50 was 0.87 µM and 0.865 µM.

`C(#CCN1c2cnccc2Sc2cccnc21)CN1CCCC1` [Compound 7]: the inhibition at 10 µM was determined as 57.3 ± 0.4% in experiment [1] and 91.1 ± 0.8% in experiment [2]. For the same compound, the IC50 in experiment [1] (setting [7]) stood at 10 ± 0.604 µM; in experiment [2] (setting [6]), 0.929 ± 0.016 µM.

For the compound `c1cnc2c(c1)Sc1ccncc1N2CCN1CCCCC1` [Compound 8], the inhibition at 10 µM was 33.5 ± 1.6% in experiment [1] and 66 ± 3.4% in experiment [2]. The IC50 in experiment [2] (setting [6]) is 4.44 ± 0.049 µM.

With `CN1CCCCC1CCN1c2cnccc2Sc2cccnc21` (stereo not shown) [Compound 9], the inhibition at 10 µM amounted to 58.1 ± 4.1% in experiment [1] and 76.4 ± 0.2% in experiment [2]. Besides, the IC50 in experiment [1] (setting [7]) came out at 6.55 ± 0.177 µM; in experiment [2] (setting [6]) it was 3.03 ± 0.072 µM.

`O=C1c2ccccc2C(=O)N1CCCN1c2cnccc2Sc2cccnc21` [Compound 10]: the values for the inhibition at 10 µM in experiment [1] and in experiment [2] were 49.6 ± 1.3% and 71.9 ± 4.3%, respectively. In experiment [2] (setting [6]), the IC50 was 3.67 ± 0.054 µM.

As for `CCN(CC)CC#CCN1c2ccncc2Sc2ccncc21` [Compound 11], the inhibition at 10 µM in experiment [1] was determined as 20.1 ± 1.4%; in experiment [2] it was 20.7 ± 0.9%.

Take `C(#CCN1c2ccncc2Sc2ccncc21)CN1CCCC1` [Compound 12]: the values for the inhibition at 10 µM in experiment [1] and in experiment [2] were 20.3 ± 1% and 31.4 ± 1.7%, respectively.

Consider `C(#CCN1c2ccncc2Sc2ccncc21)CN1CCCCC1` [Compound 13], for which the inhibition at 10 µM is 51.6 ± 3.2% in experiment [1] and 37.6 ± 1.6% in experiment [2]. Moreover, the IC50 in experiment [1] (setting [7]) was 11.3 ± 0.464 µM.

Consider `CCN(C)CC#CCN1c2ccncc2Sc2ncccc21` [Compound 14], for which the inhibition at 10 µM turned out to be 7.7 ± 2.1% in experiment [1] and 20.4 ± 1.9% in experiment [2].

As for `CCN(CC)CC#CCN1c2ccncc2Sc2ncccc21` [Compound 15], the inhibition at 10 µM in experiment [1] was 10.1 ± 3.1%; in experiment [2], 17.2 ± 7.3%.

As to `C(#CCN1c2ccncc2Sc2ncccc21)CN1CCCC1` [Compound 16], the values for the inhibition at 10 µM in experiment [1] and in experiment [2] were 21.9 ± 5.7% and 58.5 ± 9%, respectively. Further, the IC50 in experiment [2] (setting [5]) turned out to be 10.4 ± 0.308 µM.

For `CN1CCCCC1CCN1c2ccncc2Sc2ncccc21` (stereo not shown) [Compound 17], the inhibition at 10 µM in experiment [1] came out at 33 ± 4.5%; in experiment [2], 16.1 ± 0.7%.

In experiment [1] (setting [5]), `O=C1c2ccccc2C(=O)N1CCCN1c2ccncc2Sc2ncccc21` [Compound 18] had an IC50 of 4.26 ± 0.078 µM. The results for the inhibition at 10 µM in experiment [1] and in experiment [2] were 72.2 ± 0.7% and 30.5 ± 5.7%, respectively.

For the compound `Fc1ccc2c(c1)Sc1cc3ccccc3nc1N2` [Compound 19], the inhibition at 10 µM in experiment [1] was 6.6 ± 1.3%; in experiment [2] it was 81 ± 1.4%. Moreover, the IC50 in experiment [2] (setting [6]) came out at 1.02 ± 0.028 µM.

`CN1c2ccc(F)cc2Sc2cc3ccccc3nc21` [Compound 20]: the inhibition at 10 µM in experiment [1] came out at 3 ± 1.6%; in experiment [2], 35.3 ± 12.3%.

`NCCCN1c2ccc(F)cc2Sc2cc3ccccc3nc21` [Compound 21]: the inhibition at 10 µM came to 6.5 ± 2.8% in experiment [1] and 76.3 ± 1.2% in experiment [2]. In experiment [2] (setting [5]), the IC50 was 2.51 ± 0.047 µM.

Regarding `NCCCCN1c2ccc(F)cc2Sc2cc3ccccc3nc21` [Compound 22], the figures for the inhibition at 10 µM in experiment [1] and in experiment [2] were 2.3 ± 2.1% and 64.7 ± 1%, respectively. For the same compound, the IC50 in experiment [2] (setting [5]) amounted to 3.93 ± 0.196 µM.

In the case of `Fc1ccc2c(c1)Sc1cc3ccccc3nc1N2CCN1CCCCC1` [Compound 23, 9-Fluoro-6-(1-piperidylethyl)quinobenzothiazine], the inhibition at 10 µM in experiment [1] turned out to be 27 ± 2.8%; in experiment [2] it was 97.7 ± 0.5%. Also, in experiment [2] (setting [6]), the IC50 is 0.46 µM and 0.463 µM.

As to `CCN(CC)CC#CCN1c2ccc(SC)cc2Sc2cc3ccccc3nc21` [Compound 24, 6-(4-diethylaminobut-2-ynyl)-9-methylthioquinobenzothiazine], the results for the inhibition at 10 µM in experiment [1] and in experiment [2] were 83.4 ± 1.1% and 95.5 ± 0.8%, respectively. Moreover, the IC50 in experiment [1] (setting [7]) was determined as 0.784 ± 0.018 µM; in experiment [2] (setting [6]) it was 0.535 ± 0.013 µM. Besides, in experiment [3], the “type of eeAChE inhibition” value is recorded as “noncompetitive”. The “type of eqBuChE inhibition” value in experiment [4] is reported as “noncompetitive”.

In the case of `CSc1ccc2c(c1)Sc1cc3ccccc3nc1N2CC#CCN1CCCC1` [Compound 25], the inhibition at 10 µM in experiment [1] was 78 ± 1.4%; in experiment [2] it was 99.9 ± 0.7%. In addition, the IC50 was 2.22 ± 0.062 µM in experiment [1] (setting [7]) and 0.506 ± 0.014 µM in experiment [2] (setting [6]).
